Reference: article PMC5365654, “Cyclic Boronates Inhibit All Classes of β-Lactamases” (Antimicrobial Agents and Chemotherapy, 2017)
Where two headings read alike, the source gives them in different places.

Assays:
E. coli EC107, ST 131 = assay: Broth microtiter dilution MIC, EC107; assay type: cell-based; conditions: Escherichia coli, CTX-M-15 (A), OXA-1 (D), read-out: MIC (mg/liter) for β-lactam
Protocol: (§1) The in vitro activity of cyclic boronate 2 was assessed using nine clinical isolates carrying multiple β-lactamases (Table 3). The isolates selected included Enterobacteriaceae (E. coli ST 131, Klebsiella pneumoniae ST 258, and Providencia stuartii) producing class A ESBLs (CTX-M-15, CTX-M-27, SHV-5, and VEB-1), serine carbapenemase (KPC-2) and metallo-carbapenemases (VIM-1 and VIM-2), plasmid-mediated AmpC (CMY-2), and/or carbapenem-hydrolyzing OXA-48-like oxacillinases (OXA-181 and OXA-232) in various combinations. The activity against carbapenemase-producing strains of Pseudomonas aeruginosa (VIM-2) and Acinetobacter baumannii (OXA-23) was also investigated. All isolates have previously undergone extensive phenotypic and genotypic characterization ([60]).
(§2) MICs were determined using commercial Sensititre GN4F panels (Thermo Scientific, UK; lot B55051) and Mueller-Hinton II cation-adjusted broth (Oxoid, UK), with and without the addition of cyclic boronate 2 at a fixed concentration of 10 μg/ml. Plates were incubated at 37°C for 18 h and MICs read by eye following the addition of alamarBlue reagent (Trek Diagnostics).

E. coli EC114, ST 131 = assay: Broth microtiter dilution MIC, EC114; assay type: cell-based; conditions: Escherichia coli, TEM-1 (A), CTX-M-15 (A), OXA-1 (D), read-out: MIC (mg/liter) for β-lactam
Protocol: as §1, §2

E. coli EC86 = assay: Broth microtiter dilution MIC, EC86; assay type: cell-based; conditions: CTX-M-15 (A), CMY-4 (C), OXA-181 (D); for MIC: Escherichia coli
Protocol: as §1, §2

E. coli EC113, ST 131 = assay: Broth microtiter dilution MIC, EC113; assay type: cell-based; conditions: Escherichia coli, CTX-M-27 (A), read-out: MIC (mg/liter) for β-lactam
Protocol: as §1, §2

K. pneumoniae KP15 = assay: Broth microtiter dilution MIC, KP15; assay type: cell-based; conditions: Klebsiella pneumoniae, TEM-1 (A), SHV-11 (A), KPC-2 (A), read-out: MIC (mg/liter) for β-lactam
Protocol: as §1, §2

K. pneumoniae KP41 = assay: Broth microtiter dilution MIC, KP41; assay type: cell-based; conditions: Klebsiella pneumoniae, TEM-1, SHV-1, SHV-5, SHV-11, CTX-M-15 (A), OXA-232 (D), read-out: MIC (mg/liter) for β-lactam
Protocol: as §1, §2

K. pneumoniae KP58 = assay: Broth microtiter dilution MIC, KP58; assay type: cell-based; conditions: Klebsiella pneumoniae, SHV-11 (A), VIM-4 (B), read-out: MIC (mg/liter) for β-lactam
Protocol: as §1, §2

P. stuartii PS71 = assay: Broth microtiter dilution MIC, PS71; assay type: cell-based; conditions: Providencia stuartii, TEM-1 (A), SHV-5 (A), VEB-1 (A), VIM-1 (B), read-out: MIC (mg/liter) for β-lactam
Protocol: as §1, §2

[1] = system: P. aeruginosa PA12, ST 111; assay: Broth microtiter dilution MIC, PA12; assay type: cell-based; conditions: Pseudomonas aeruginosa, VIM-2 (B), read-out: MIC (mg/liter) for β-lactam
Protocol: as §1, §2

A. baumannii AB14 = assay: Broth microtiter dilution MIC, AB14; assay type: cell-based; conditions: Acinetobacter baumannii, OXA-23 (D), OXA-51 (D), read-out: MIC (mg/liter) for β-lactam
Protocol: as §1, §2

CTX-M-15 = molecular target: T1, CTX-M-15 (Escherichia coli, UniProt Q9EXV5); assay: FC5 fluorogenic β-lactamase inhibition assay, CTX-M-15; assay type: biochemical; conditions: FC5 substrate, read-out: IC50, nM (mean ± SD) for CTX-M-15
T1 construct: hexahistidine (pOPINF, 3C-cleavable) (N, cleaved yes); made in house; host or cells: E. coli BL21(DE3)
T1 sequence (Q9EXV5 entry or part of it): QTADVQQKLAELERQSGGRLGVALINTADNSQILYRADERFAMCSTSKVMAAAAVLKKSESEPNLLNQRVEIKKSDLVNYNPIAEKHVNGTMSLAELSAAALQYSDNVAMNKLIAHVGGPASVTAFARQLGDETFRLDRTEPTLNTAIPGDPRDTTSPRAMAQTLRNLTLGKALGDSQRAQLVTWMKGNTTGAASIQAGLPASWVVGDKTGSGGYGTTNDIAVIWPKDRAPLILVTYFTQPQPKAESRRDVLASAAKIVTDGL
Excerpt: To investigate the extent to which cyclic boronates inhibit class C β-lactamases as well as the important class A ESBL and class D carbapenemase targets, we used a fluorogenic assay ([22]) to screen the cyclic boronates, which we have found to inhibit other β-lactamases ([21]), against them. The β-lactamases used for screening included TEM-1 and CTX-M-15 (class A), the metallo-β-lactamase (MBL) from Bacillus cereus (BcII), Verona integron-encoded metallo-β-lactamase 1 (VIM-1) (class B), AmpC from P. aeruginosa (class C), and OXA-23 and OXA-48 (class D), collectively representing all classes of β-lactamase.
Inhibition assays were carried out using FC5 as a fluorogenic reporter substrate ([22]). Enzyme concentrations and buffers were the same as those employed in steady-state kinetic studies (see Table S2 in the supplemental material). […] The concentration of FC5 employed was 10 μM for TEM-1 and 5 μM for all other enzymes. […] Data at 0 min of incubation were obtained by addition of enzyme to a premixed solution of inhibitor and substrate. Residual enzyme activity was determined for a range of inhibitor concentrations. Nonlinear regression fitting of IC50 curves was carried out using a three-parameter dose-response curve in GraphPad Prism. Errors in IC50 are expressed as [σ(log IC50)/log IC50)] × IC50.
45 Steady-state kinetics studies used a Pherastar FS microplate reader with UV-STAR® 96-well,
47 black, µclear® plates (Greiner Bio-One) for FC5 (1). Buffers employed were 100 mM
48 phosphate buffer pH 7.5, 0.01% (v/v) Triton X-100 for TEM-1, CTX-M-15 and AmpC, 100 mM
49 phosphate buffer pH 7.5, 50 mM sodium bicarbonate, 0.01% Triton X-100 for OXA-23 and
51 1 µM ZnSO4, 0.01% Triton X-100 for MBL assays. Reaction progress was monitored at 298 K
53 intensity (λex = 380 nm, λem = 480 nm) for FC5 (1). Suitable enzyme concentrations for
54 kinetic analysis were determined by monitoring changes in absorbance/fluorescence for
55 enzyme concentrations between 20 nM and 20 pM.
Kinetic constants were determined using the initial rate of hydrolysis with the
57 reaction initiated through the addition of enzyme to pre-prepared substrate concentrations.
58 Substrate concentrations ranged between 400 µM and 0.4 µM. The Michaelis-Menten
59 equation was fitted to data by non-linear regression using GraphPad Prism software to
60 calculate the Michaelis-Menten constant and the limiting rate (2).

[2] = with cyclic boronate 2 (10 mg/liter) supplementation
[3] = without cyclic boronate 2 supplementation
[4] = E. coli EC86, with cyclic boronate 2 (10 mg/liter) supplementation, read-out: MIC (mg/liter) for β-lactam
[5] = EC86, read-out: MIC (mg/liter) for β-lactam, E. coli EC86, without cyclic boronate 2 supplementation

Row | SMILES | MIC (E. coli EC107, ST 131; [2]) [mg/L] | MIC (E. coli EC107, ST 131; [3]) [mg/L] | MIC (E. coli EC114, ST 131; [2]) [mg/L] | MIC (E. coli EC114, ST 131; [3]) [mg/L] | MIC (E. coli EC86; [4]) [mg/L] | MIC (E. coli EC113, ST 131; [2]) [mg/L] | MIC (E. coli EC113, ST 131; [3]) [mg/L] | MIC (K. pneumoniae KP15; [2]) [mg/L] | MIC (K. pneumoniae KP15; [3]) [mg/L] | MIC (K. pneumoniae KP41; [2]) [mg/L] | MIC (K. pneumoniae KP41; [3]) [mg/L] | MIC (K. pneumoniae KP58; [2]) [mg/L] | MIC (K. pneumoniae KP58; [3]) [mg/L] | MIC (P. stuartii PS71; [2]) [mg/L] | MIC (P. stuartii PS71; [3]) [mg/L] | MIC [1, 2] [mg/L] | MIC [1, 3] [mg/L] | MIC (A. baumannii AB14; [2]) [mg/L] | MIC (A. baumannii AB14; [3]) [mg/L] | other results
1 | CC1(C)S[C@@H]2[C@H](NC(=O)[C@H](N)c3ccccc3)C(=O)N2[C@H]1C(=O)O [AMP, ampicillin] | > 16 | > 16 | > 16 | > 16 | > 16 | ≤ 8 | > 16 | > 16 | > 16 | > 16 | > 16 | > 16 | > 16 | > 16 | > 16 | > 16 | > 16 | > 16 | > 16 | MIC (mg/liter) for β-lactam (E. coli EC86; E. coli EC86, without cyclic boronate 2 supplementation): >16 mg/L
2 | NC(=O)[C@@H]1CC[C@@H]2CN1C(=O)N2OS(=O)(=O)O [Avibactam, avibactam] | – | – | – | – | – | – | – | – | – | – | – | – | – | – | – | – | – | – | – | IC50 (CTX-M-15; preincubation 0 min): 9.9 ± 0.2 nM; IC50 (CTX-M-15; preincubation 10 min): 1.1 ± 0.1 nM; IC50 (CTX-M-15; preincubation 30 min): 0.4 ± 0.06 nM; IC50 (CTX-M-15; preincubation 60 min): 0.39 ± 0.01 nM; IC50 (CTX-M-15; preincubation 360 min): 6.4 ± 0.1 nM
3 | CC(C)(O/N=C(\C(=O)N[C@@H]1C(=O)N2C(C(=O)[O-])=C(C[n+]3ccccc3)CS[C@H]12)c1csc(N)n1)C(=O)O [CAZ, ceftazidime] | ≤ 1 | > 16 | ≤ 1 | > 16 | 8 | ≤ 1 | 8 | 4 | > 16 | > 16 | > 16 | 2 | > 16 | > 16 | > 16 | > 16 | > 16 | > 16 | > 16 | MIC (E. coli EC86; [5]): > 16 mg/L
4 | CO/N=C(\C(=O)N[C@@H]1C(=O)N2C(C(=O)O)=C(CSc3nc(=O)c(=O)[nH]n3C)CS[C@H]12)c1csc(N)n1 [CRO, ceftriaxone] | < 0.5 | > 16 | < 0.5 | > 32 | 8 | < 0.5 | > 32 | – | – | – | – | – | – | 16 | > 32 | > 32 | > 32 | > 32 | > 32 | MIC (E. coli EC86; [5]): > 16 mg/L
5 | C[C@@H](O)[C@H]1C(=O)N2C(C(=O)O)=C(S[C@@H]3CN[C@H](C(=O)Nc4cccc(C(=O)O)c4)C3)[C@H](C)[C@H]12 [ERT, ertapenem] | – | – | – | – | 4 | – | – | – | – | – | – | – | – | – | – | – | – | – | – | –
6 | Cc1nnc(SCC2=C(C(=O)O)N3C(=O)[C@@H](NC(=O)Cn4cnnn4)[C@H]3SC2)s1 [FAZ, cefazolin] | 8 | – | 8 | – | – | 4 | – | > 16 | > 16 | > 16 | > 16 | > 16 | > 16 | 4 | > 16 | > 16 | > 16 | > 16 | > 16 | –
7 | CO/N=C(\C(=O)N[C@@H]1C(=O)N2C(C(=O)[O-])=C(C[N+]3(C)CCCC3)CS[C@H]12)c1csc(N)n1 [FEP, cefepime] | 8 | – | 8 | – | ≤ 4 | ≤ 4 | – | ≤ 4 | > 32 | 32 | > 32 | > 32 | > 32 | 8 | > 32 | > 32 | > 32 | 32 | > 32 | –
